Patent publication US12146004B2, “Polymyxin compounds and uses thereof” (priority 2014, dated 2024)
≈ marks a conversion by molar mass, not a printed value.

How the values were obtained:
Assay type in all cases: cell-based
HK-2 cells = tested on: HK-2 cells
Text: Values are reported relative to Polymyxin B.

Acinetobacter baumannii = tested on: Acinetobacter baumannii
In short: (§1)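 Susceptibility testing covered up to nine strains of each Gram-negative pathogen, among them resistant strains and strains with elevated MICs to Polymyxin. Values are MICs in μg/mL.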

Pseudomonas aeruginosa = tested on: Pseudomonas aeruginosa
In short: as §1

Klebsiella pneumoniae = tested on: Klebsiella pneumoniae
In short: as §1

Escherichia coli = tested on: Escherichia coli
In short: as §1

SMILES	HK-2 IC50 (HK-2 cells) [µg/mL]	MIC A. baumanii 053 (Acinetobacter baumannii) [µg/mL]	MIC A. baumanii 056 (Acinetobacter baumannii) [µg/mL]	MIC A. baumanii ATCC BAA-747 (Acinetobacter baumannii) [µg/mL]	MIC P. aeruginosa 068 (Pseudomonas aeruginosa) [µg/mL]	MIC P. aeruginosa 070 (Pseudomonas aeruginosa) [µg/mL]	MIC P. aeruginosa ATCC 27853 (Pseudomonas aeruginosa) [µg/mL]	MIC K. pneumoniae 062 (Klebsiella pneumoniae) [µg/mL]	MIC K. pneumoniae 064 (Klebsiella pneumoniae) [µg/mL]	MIC K. pneumoniae 065 (Klebsiella pneumoniae) [µg/mL]	MIC K. pneumoniae 066 (Klebsiella pneumoniae) [µg/mL]	MIC K. pneumoniae 067 (Klebsiella pneumoniae) [µg/mL]	MIC K. pneumoniae ATCC 4352 (Klebsiella pneumoniae) [µg/mL]	MIC E. coli 058 (Escherichia coli) [µg/mL]	MIC E. coli 059 (Escherichia coli) [µg/mL]	MIC E. coli 060 (Escherichia coli) [µg/mL]	MIC E. coli 061 (Escherichia coli) [µg/mL]	MIC E. coli ATCC 25922 (Escherichia coli) [µg/mL]	MIC K. pneumoniae 063 (Klebsiella pneumoniae) [µg/mL]
CCCCCCCCC1CNCC1C(=O)N[C@H](C(=O)N[C@@H](CCN)C(=O)N[C@H]1CCNC(=O)[C@H]([C@@H](C)O)NC(=O)[C@H](CCN)NC(=O)[C@H](CCN)NC(=O)[C@H](CC(C)C)NC(=O)[C@@H](Cc2ccc(-c3ccccc3)cc2)NC(=O)[C@H](CCN)NC1=O)C(C)O (single isomer, unassigned; isomer 2) [Example 8, trans-4-octylpyrrolidine-3-carbonyl polymyxin [D-(4-phenyl)Phe]-6] nonapeptide. Isomer 2]	3	4 (≈ 3.2 µM)	2 (≈ 1.6 µM)	1 (≈ 0.801 µM)	2 (≈ 1.6 µM)	2 (≈ 1.6 µM)	1 (≈ 0.801 µM)	4 (≈ 3.2 µM)	1 (≈ 0.801 µM)	1 (≈ 0.801 µM)	0.5 (≈ 0.4 µM)	8 (≈ 6.41 µM)	1 (≈ 0.801 µM)	2 (≈ 1.6 µM)	1 (≈ 0.801 µM)	2 (≈ 1.6 µM)	4 (≈ 3.2 µM)	1 (≈ 0.801 µM)	–
CCCCCCCCC1CNCC1C(=O)N[C@H](C(=O)N[C@@H](CCN)C(=O)N[C@H]1CCNC(=O)[C@H]([C@@H](C)O)NC(=O)[C@H](CCN)NC(=O)[C@H](CCN)NC(=O)[C@H](CC(C)C)NC(=O)[C@@H](Cc2ccccc2-c2ccccc2)NC(=O)[C@H](CCN)NC1=O)C(C)O (single isomer, unassigned; isomer 2) [Example 10, trans-4-octylpyrrolidine-3-carbonyl polymyxin [D-(2-phenyl)Phe]-6] nonapeptide. Isomer 2]	4	4 (≈ 3.2 µM)	4 (≈ 3.2 µM)	1 (≈ 0.801 µM)	2 (≈ 1.6 µM)	2 (≈ 1.6 µM)	2 (≈ 1.6 µM)	2 (≈ 1.6 µM)	2 (≈ 1.6 µM)	1 (≈ 0.801 µM)	4 (≈ 3.2 µM)	4 (≈ 3.2 µM)	1 (≈ 0.801 µM)	1 (≈ 0.801 µM)	1 (≈ 0.801 µM)	2 (≈ 1.6 µM)	2 (≈ 1.6 µM)	2 (≈ 1.6 µM)	8 (≈ 6.41 µM)
CC(C)CC1CNCC(C(=O)N[C@H](C(=O)N[C@@H](CN)C(=O)N[C@H]2CCNC(=O)[C@H]([C@@H](C)O)NC(=O)[C@H](CCN)NC(=O)[C@H](CCN)NC(=O)[C@H](CC(C)C)NC(=O)[C@@H](Cc3ccc(Br)cc3)NC(=O)[C@H](CCN)NC2=O)C(C)O)C1 (single isomer, unassigned; isomer 2) [Example 12, (trans-5-(isobutyl-piperidine)-3-carbonyl L-Thr-L-Dap-polymyxin [D-(4-bromo Phe)]-6] heptapeptide Isomer 2]	54	8 (≈ 6.69 µM)	–	0.125 (≈ 0.105 µM)	1 (≈ 0.837 µM)	1 (≈ 0.837 µM)	0.25 (≈ 0.209 µM)	8 (≈ 6.69 µM)	1 (≈ 0.837 µM)	0.5 (≈ 0.418 µM)	1 (≈ 0.837 µM)	8 (≈ 6.69 µM)	0.125 (≈ 0.105 µM)	0.25 (≈ 0.209 µM)	1 (≈ 0.837 µM)	1 (≈ 0.837 µM)	1 (≈ 0.837 µM)	0.125 (≈ 0.105 µM)	4 (≈ 3.35 µM)
CC(C)CC(CN)C(=O)N[C@H](C(=O)N[C@@H](CN)C(=O)N[C@H]1CCNC(=O)[C@H]([C@@H](C)O)NC(=O)[C@H](CCN)NC(=O)[C@H](CCN)NC(=O)[C@H](CC(C)C)NC(=O)[C@@H](Cc2ccc(Br)cc2)NC(=O)[C@H](CCN)NC1=O)C(C)O (single isomer, unassigned; isomer 2) [Example 14, 2-aminomethyl-4-methyl pentanoyl polymyxin L-Thr-L-Dap-polymyxin [D-(4-bromo Phe)]-6]heptapeptide. Isomer 2]	76	32 (≈ 27.7 µM)	16 (≈ 13.9 µM)	0.125 (≈ 0.108 µM)	8 (≈ 6.93 µM)	16 (≈ 13.9 µM)	0.5 (≈ 0.433 µM)	8 (≈ 6.93 µM)	8 (≈ 6.93 µM)	8 (≈ 6.93 µM)	8 (≈ 6.93 µM)	>64	0.25 (≈ 0.216 µM)	4 (≈ 3.46 µM)	8 (≈ 6.93 µM)	8 (≈ 6.93 µM)	16 (≈ 13.9 µM)	0.25 (≈ 0.216 µM)	64 (≈ 55.4 µM)
CC(C)CC(CN)C(=O)N[C@H](C(=O)N[C@@H](CN)C(=O)N[C@H]1CCNC(=O)[C@H]([C@@H](C)O)NC(=O)[C@H](CCN)NC(=O)[C@H](CCN)NC(=O)[C@H](CC(C)C)NC(=O)[C@@H](Cc2ccc(-c3ccccc3)cc2)NC(=O)[C@H](CCN)NC1=O)C(C)O (single isomer, unassigned; isomer 2) [Example 16, 2-aminomethyl-4-methyl pentanoyl polymyxin L-Thr-L-Dap-polymyxin [D-(4-phenyl Phe)]-6]heptapeptide. Isomer 2]	32	16 (≈ 13.9 µM)	4 (≈ 3.47 µM)	0.25 (≈ 0.217 µM)	4 (≈ 3.47 µM)	8 (≈ 6.94 µM)	0.5 (≈ 0.434 µM)	4 (≈ 3.47 µM)	2 (≈ 1.74 µM)	1 (≈ 0.868 µM)	4 (≈ 3.47 µM)	32 (≈ 27.8 µM)	0.5 (≈ 0.434 µM)	4 (≈ 3.47 µM)	1 (≈ 0.868 µM)	5 (≈ 4.34 µM)	16 (≈ 13.9 µM)	0.25 (≈ 0.217 µM)	16 (≈ 13.9 µM)
